Test results as given in patent US20260049101A1, “TOPICAL TREATMENT OF SKIN CANCER USING OLIGOPEPTIDES” (BACOBA AG, priority 2022, published 2026).
Entries after “also recorded” stand apart in the source; their conditions may differ. Square brackets hold non-standard residues; d marks the D form. Peptide text beside a SMILES is read from it. * marks the point of attachment. NH(1-CH2NMe2-cBu) = CN(C)CC1(N*)CCC1; Benzoyl(4-F) = O=C(c1ccc(F)cc1)*; hCha = N[C@@H](CCC1CCCCC1)C(=O)O; Aib = CC(C)(N)C(=O)O; βAla = NCCC(=O)O

How the values were obtained:
[1] = Franz cells, 48 hours, donor 0.1% 6027 in DMSO, acceptor PBS + 2% Volpo; % of total 6027
Method: Pig ears from freshly slaughtered pigs, not older than 5 months and of both sexes, were obtained from the slaughterhouse Bell Schweiz AG (Basel, Switzerland). The ears were washed with tap water and the hairs were removed with an electric clipper. The skin was separated from the underlying cartilage from the backside of the ear by using a scalpel. After washing the skin again, it was stored in aluminium foil at −20° C. for no longer than one month.
After thawing the frozen skin, it was cut into adequate circles and the skin thickness was measured with a calliper. The skin was mounted into the FDC, tightly sealed with Teflon band and fixed in special designed holder. Then the acceptor compartment was equipped with a magnetic stirrer, filled with placebo formulation and equilibrated for one hour. To check the barrier integrity and to be sure that there are no invisible damages from skin preparation TEWL (transepidermal water loss) was measured. The FDCs were then placed in the water bath +32° C.±1 over a magnetic stirrer (500 rpm). Due to differences of each FDC, the skin application area for drug permeation was measured and calculated for each cell in advance. Consequently, the amount of 6027 for the donor compartment had to be adjusted for the infinite-dose experiment to 284.1 μL/cm^2.
At predefined time points 50 μL samples were taken from the acceptor compartment. The missing volume was replaced with the corresponding placebo formulation.
At the end of the permeation experiment and before reassembling the FDCs, the donor compartments were washed out with 10 mL ACN:H2O (55:45).
To extract 6027 from the skin, the frozen skin was cut into small pieces and grinded by a cryogenic grinder Freezer/Mill® from Spex SamplePrep (Metuchen, USA). The setting was 10 min precooling and a rate of 10 CPS for 4 cycles with 2 minutes. The resulting powder was resuspended in 2 mL ACN:H2O (55:45). […]
The concentrations of 6027 were determined by using HPLC-MS from Agilent Technologies. […]

[2] = Dermal tolerability in the in vivo efficacy test; set-up: species or system mouse; conditions: 20 μl of 5% 6027 once a day
Method: (§1) In vivo efficacy test methodology. C57Bl/6 mice (Janvier Labs); females; 6-8 weeks old at beginning of the treatment. The tumour was induced through intradermal inoculation of 1×10^5 cells per mouse intradermally in the skin of the neck. A total of 24 mice were used (n=8 for vehicle, n=8 for 5% 6027, n=8 for leucinostatin A 0.2%). Test item was applied starting on day 1 after inoculation of the tumour cells. The test items of 20 μl of 5% 6027 and of 0.2% Leucinostatin A were applied dermally with a pipette once a day every day for up to 21 days to the intact skin area of about 1 cm^2 on the site were the B16-F10 cells had been injected. If ulceration occurred then the animal was removed from the test and sacrificed.

[3] = system: B16F10 xenografts in C57BL/6 mice; experiment: In vivo efficacy test, dermal treatment of intradermal B16-F10 tumours (tumour volume); set-up: species or system mouse; conditions: for T/C [%] (ratio of mean tumour volume of treated over control) / RTV Mean / RTV Median / Tumour Volume [cm^3] Mean / Tumour Volume [cm^3] Median: 20 μl of 5% 6027 dermally daily from day 1; for RTV Mean / RTV Median / Tumour Volume [cm^3] Mean / Tumour Volume [cm^3] Median: n=8
Method: as §1
The read out was tumour volume measured three times a week expressed as tumour volume (in cm^3). Additionally, tumour samples were taken for histological analysis (Tumour FFPE) (2 mice per group).

## CC(C)C[C@H](NC(=O)[C@H](CCC1CCCCC1)NC(=O)[C@@H]1CCCN1C(=O)c1ccc(F)cc1)C(=O)NC(C)(C)C(=O)N[C@@H](CC(C)C)C(=O)N[C@@H](CC(C)C)C(=O)NC(C)(C)C(=O)NC(C)(C)C(=O)NCCC(=O)NC1(CN(C)C)CCC1 [Compound 6027, (2S)-2-[(2S)-4-cyclohexyl-2-{[(2S)-1-(4-fluorobenzoyl)pyrrolidin-2-yl]formamido}butanamido]-N-(1-{[(1S)-1-{[(1S)-1-({1-[(1-{[2-({1-[(dimethylamino)methyl]cyclobutyl}carbamoyl)ethyl]carbamoyl}-1-methylethyl)carbamoyl]-1-methylethyl}carbamoyl)-3-methylbutyl]carbamoyl}-3-methylbutyl]carbamoyl}-1-methylethyl)-4-methylpentanamide] ({Benzoyl(4-F)}-P[hCha]L[Aib]LL[Aib][Aib][βAla]-{NH(1-CH2NMe2-cBu)})
[1]
  Acceptor (%): 0.2%
  Donor (%): 79%
  Skin extraction (%) (skin penetration): 16%
[2]
  skin irritations or other side effects: No skin irritations or other side effects were observed; also recorded: did not show skin irritations
  tolerability of dermal treatment: well tolerated
[3]; day 1
  T/C [%] (ratio of mean tumour volume of treated over control): 100%
  RTV Mean: 1.0
  RTV Median: 1.0
  Tumour Volume [cm^3] Mean: 0.001 cm^3
  Tumour Volume [cm^3] Median: 0.001 cm^3
[3]; day 2
  T/C [%] (ratio of mean tumour volume of treated over control): 100%
  RTV Mean: 1.0
  RTV Median: 1.0
  Tumour Volume [cm^3] Mean: 0.001 cm^3
  Tumour Volume [cm^3] Median: 0.001 cm^3
[3]; day 4
  T/C [%] (ratio of mean tumour volume of treated over control): 100%
  RTV Mean: 1.0
  RTV Median: 1.0
  Tumour Volume [cm^3] Mean: 0.001 cm^3
  Tumour Volume [cm^3] Median: 0.001 cm^3
[3]; day 7
  T/C [%] (ratio of mean tumour volume of treated over control): 71%
  RTV Mean: 8.8
  RTV Median: 9.0
  Tumour Volume [cm^3] Mean: 0.009 cm^3
  Tumour Volume [cm^3] Median: 0.009 cm^3
[3]; day 9
  T/C [%] (ratio of mean tumour volume of treated over control): 64%
  RTV Mean: 28.4
  RTV Median: 25.5
  Tumour Volume [cm^3] Mean: 0.028 cm^3
  Tumour Volume [cm^3] Median: 0.026 cm^3
[3]; day 10
  T/C [%] (ratio of mean tumour volume of treated over control): 35%
  RTV Mean: 29.9
  RTV Median: 25.5
  Tumour Volume [cm^3] Mean: 0.030 cm^3
  Tumour Volume [cm^3] Median: 0.026 cm^3
[3]; day 11
  T/C [%] (ratio of mean tumour volume of treated over control): 33%
  RTV Mean: 44.6
  RTV Median: 31.0
  Tumour Volume [cm^3] Mean: 0.045 cm^3
  Tumour Volume [cm^3] Median: 0.031 cm^3
[3]; topical treatment with 5% 6027 vs vehicle
  reduction of tumour growth: significant reduction of tumour growth
